Values joined by “and” are separate entries in the source; they are usually repeats but may differ in a detail not shown here. Identical values can stand only once.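 48-hour exposure; five concentrations; linearly interpolated endpoints. Abbreviation: GI50, concentration required for 50% inhibition of growth. TGI denotes the concentration required for complete inhibition of growth.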
Tests used:
Assay in all cases: growth of human tumour cells (NCI), 48 h
[1] = tested on: COLO 205 colon
[2] = tested on: K-562 leukemia
[3] = tested on: RXF 393 renal
[4] = tested on: HCT-15 colon
[5] = tested on: HS 578T breast
[6] = tested on: SF-539 CNS
[7] = tested on: NCI/ADR-RES ovarian
[8] = tested on: CCRF-CEM leukemia
[9] = tested on: HCT-116 colon
[10] = tested on: SR leukemia

| Structure (SMILES) | TGI [1] [µM] | TGI [2] | TGI [3] [µM] | TGI [4] | TGI [5] [µM] | TGI [6] | TGI [7] | TGI [8] [µM] | TGI [9] [µM] | TGI [10] [µM] | GI50 [10] [µM] | GI50 [4] [µM] | GI50 [7] [µM] |
| --- | --- | --- | --- | --- | --- | --- | --- | --- | --- | --- | --- | --- | --- |
| CS(=O)(=O)O.[Ag] | 4.84 | 4.96 µM | 42 | 36.5 µM | > 100 | 32.1 µM | 74.3 µM | 6.64 | 20 |  |  |  |  |
| O=C(O)C1SCCS1 | > 100 | > 100 µM |  | > 100 µM |  |  | > 100 µM | > 100 | > 100 | > 100 |  |  |  |
| COC(=O)n1c(CBr)c(Br)c2ccccc21 | > 100 | > 100 µM |  | > 100 µM |  | > 100 µM |  | 70.2 | > 100 | 80.6 |  |  |  |
| CC1(C)[C@@H]2C[C@H]1C(Cc1cccc(C[C@H]3c4cc(-c5ccccn5)ncc4[C@H]4C[C@@H]3C4(C)C)c1)c1cc(-c3ccccn3)ncc12 (stereo partly drawn) | > 58.6 | > 100 µM | > 100 | > 53 µM | > 100 | > 28.4 µM | > 57.6 µM |  | > 100 | 2.63 | 0.439 |  |  |
| O=C(O)/C=C/C(=O)O | > 100 | > 100 µM |  | > 100 µM | > 100 | > 100 µM | > 100 µM | > 100 | > 100 | > 100 |  |  |  |
| CCS(=O)(=O)c1c2cc(OC)ccc2nc2ccc(OC)cc12 | > 100 | > 100 µM | > 100 | > 100 µM |  | > 100 µM | > 100 µM | > 100 | > 100 | > 100 |  |  |  |
| C/C=C\C(CC(=O)NCCC1CN(C(=O)c2ccccc2)c2ccccc21)CC(=O)OC (stereo not drawn) | > 100 | > 100 µM | > 100 | > 100 µM | > 100 |  | > 100 µM |  | > 100 |  |  |  |  |
| CC(=O)Nc1ccc(-c2nnc(SCC(=O)Nc3ccccc3C)o2)cc1 | > 100 | > 100 µM | > 100 | > 100 µM |  | > 100 µM |  | > 100 | 29.4 | > 100 |  |  |  |
| O=C1O[C@]2(c3ccccc3)C(c3ccccc3)=C[C@]2(C(=O)c2ccccc2)C1=O | > 100 | 54.3 µM | 5.13 | > 100 µM | > 100 | 50.8 µM | > 100 µM |  | > 100 | 30.7 |  |  |  |
| COc1ccc(/C=C2\CN(C)Cc3c2[nH]c(=O)c(C#N)c3-c2ccc(OC)cc2)cc1 | > 100 | > 100 µM | 63.3 | > 100 µM | > 100 |  | > 100 µM | > 100 | > 100 |  |  |  |  |
| O=C(/C=C/c1ccccc1O)/C=C/c1ccccc1O | 3.4 | > 100 µM |  | 5.1 µM | 12.3 | 3.57 µM | 4.88 µM |  | 1.23 | > 100 |  |  |  |
| COc1ccc2c(c1)-c1oc3ccccc3c(=O)c1CO2 | > 100 | > 100 µM |  | > 100 µM |  | > 100 µM | > 100 µM | > 100 | > 100 |  |  |  |  |
| CN(C)CC(NC(NCS)C(=O)NCCNc1ccc(NCCNC(=O)C(NCS)NC(CN(C)C)OCCl)c2c1C(=O)c1c(O)ccc(O)c1C2=O)OCCl (stereo not drawn) | 3.28 |  |  | 1.73 µM and 1.74 µM | 3.05 |  | 4.99 µM and 5.04 µM |  | 1.72 |  |  | 0.0892 | 0.287 |
| COc1ccc(C2=CN3CCC[C@H]3C=C2c2cc(O)c(OC)c(OC)c2)cc1OC | 0.0256 | 0.244 µM and 0.173 µM | 0.0288 |  | 0.036 | 0.0594 µM and 0.0927 µM |  | 0.235 | 0.0108 | 0.0518 |  |  |  |
| CN1CCCCC(C(O)(c2ccccc2)c2ccccc2)C1=O (stereo not drawn) | > 100 | > 100 µM | > 100 | 32.1 µM |  | > 100 µM |  | > 100 | 56.9 | > 100 |  |  |  |
| COC(=O)c1cccc(C(=O)OC)c1 | > 100 |  | > 100 | > 100 µM |  |  |  | > 100 | > 100 | > 100 |  |  |  |
| CC(=O)NC1=C(C)C(=O)c2c(nc3n2CC[C@H]3OC(C)=O)C1=O | 3.36 | > 100 µM | 3.12 | 12.6 µM | 9.21 | 4.38 µM | 15.6 µM | > 100 | 3.14 |  |  |  |  |
| OCCO[P+]1(OCCO)n2c3ccc2C(c2ccccc2)=C2C=CC(=N2)C(c2ccccc2)=c2ccc(n21)=C(c1ccccc1)C1=NC(=C3c2ccccc2)C=C1 | 0.0651 | 18 µM | 0.563 | 3.59 µM | 0.206 |  | 41.4 µM | 0.252 | 0.203 | 0.294 |  |  |  |
| CC(C)(NC1=NCCO1)c1ccccc1 | > 100 |  | > 100 | > 100 µM | > 100 | > 100 µM | > 100 µM |  | > 100 |  |  |  |  |
| Cc1cc([N+](=O)[O-])ccc1N=NC(=O)NNc1ccc([N+](=O)[O-])cc1C |  | 39.9 µM |  | 50.2 µM |  |  |  | 41.7 | 28.2 | 47.6 |  |  |  |
| Nc1nc(SCCC/C=C/I)nc2c1ncn2C1OC(CO)C(O)C1O (stereo not drawn) | > 202 | > 202 µM |  | > 202 µM |  | > 202 µM |  | > 202 | > 202 | > 202 |  |  |  |
| O=C1/C(=C/c2ccco2)NC(=S)N1CN1CCOCC1 | > 100 | > 100 µM |  | > 100 µM | > 100 |  | > 100 µM | > 100 | > 100 | > 100 |  |  |  |
| Cc1nnc2sc(N/N=C/c3ccccc3)nn12 | > 100 | > 100 µM | > 100 | > 100 µM | > 100 | > 100 µM | > 100 µM | > 100 | > 100 |  |  |  |  |
| COc1ccc2c(c1)CC[C@@H]1[C@@H]2CC[C@]2(C)C(=O)/C(=C/c3cc(OC)c(OC)c(OC)c3)C[C@@H]12 | > 100 |  | 86.8 | > 100 µM |  | 67 µM | 34.6 µM |  | > 100 | > 100 |  |  |  |

— PubChem BioAssay (NCI)
